The values that follow come from patent US20050282818A1, “Ubiquitin ligase inhibitors” (Rigel Pharmaceuticals, Inc., priority 2004, published 2005).

In one assay the target is T1, TRAF6/Uev1A/Ubc13 (Homo sapiens, UniProt Q9Y4K3).
T1 sequence (Q9Y4K3 1-522): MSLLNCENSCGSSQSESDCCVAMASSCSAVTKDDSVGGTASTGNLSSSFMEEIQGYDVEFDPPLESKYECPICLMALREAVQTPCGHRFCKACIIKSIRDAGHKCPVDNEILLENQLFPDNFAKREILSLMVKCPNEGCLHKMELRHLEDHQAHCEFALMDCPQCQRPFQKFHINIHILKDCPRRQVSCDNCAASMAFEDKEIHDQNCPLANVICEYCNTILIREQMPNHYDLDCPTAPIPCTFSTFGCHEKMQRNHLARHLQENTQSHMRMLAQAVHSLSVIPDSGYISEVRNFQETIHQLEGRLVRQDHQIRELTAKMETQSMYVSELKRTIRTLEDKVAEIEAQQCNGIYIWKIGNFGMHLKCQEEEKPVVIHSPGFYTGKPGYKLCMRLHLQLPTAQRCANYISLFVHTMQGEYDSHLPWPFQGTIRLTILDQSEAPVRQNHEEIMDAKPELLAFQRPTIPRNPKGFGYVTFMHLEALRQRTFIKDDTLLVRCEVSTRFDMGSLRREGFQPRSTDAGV
Put plainly: TRAF6/Uev1A/Ubc13 plate-based ubiquitin ligase assay. Format: biochemical. In a few lines:
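Ligase activity was read as luminescence from anti-Flag/HRP detection of Flag-ubiquitin bound to casein-blocked Ni-plates alongside His-ubiquitin after a 1 h room-temperature reaction. Buffer: 62.5 mM Tris pH 7.5, 6.25 mM MgCl2, 1.0 mM DTT, 2 μM ATP; E1, Uev1a/Ubc13 and TRAF6 added last to start. IC50s derived across compound concentrations.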

Assay [1] has as its system ICAM-1 expression in A549 cells. In words: ICAM assay (IL-1 induced ICAM-1/CD54 expression in A549 cells). Conditions: Homo sapiens, A549, ICAM assay. The class given is cell-based, human. The method, boiled down: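 A549 cells, 10,000/well, preincubated with compound 1 h at 37° C, then stimulated with IL-1 (4 μl of 25 ng/ml added) for 4 h. Surface ICAM-1 detected by anti-CD54 plus anti-mouse IgG staining for 1 h, luminescent read-out after PBS washes.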

For another assay, the target named is APC11/APC2 (Homo sapiens, UniProt Q9NYG5+Q9UJX6). In words: APC-11/APC-2 ligase assay (APC auto ubiquitination). The class given is biochemical. Particulars: APC assay. In a few lines: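 His-tagged APC was captured on nickel plates with human E1 (5 ng/well), UbcH5c (20 ng/well), APC (100 ng/well) and Flag-ubiquitin (100 ng/well) in a Tris pH 7.6 reaction buffer containing 2.5 mM ATP, for 1 hour at room temperature. Read-out was anti-Flag/HRP chemiluminescence. IC50 was set against a DMSO control, typically from 6 or 8 concentrations.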
APC11/APC2, sequence (Q9NYG5 whole entry): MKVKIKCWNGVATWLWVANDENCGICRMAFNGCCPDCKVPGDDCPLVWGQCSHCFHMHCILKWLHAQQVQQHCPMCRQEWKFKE
APC11/APC2, sequence (Q9UJX6 whole entry): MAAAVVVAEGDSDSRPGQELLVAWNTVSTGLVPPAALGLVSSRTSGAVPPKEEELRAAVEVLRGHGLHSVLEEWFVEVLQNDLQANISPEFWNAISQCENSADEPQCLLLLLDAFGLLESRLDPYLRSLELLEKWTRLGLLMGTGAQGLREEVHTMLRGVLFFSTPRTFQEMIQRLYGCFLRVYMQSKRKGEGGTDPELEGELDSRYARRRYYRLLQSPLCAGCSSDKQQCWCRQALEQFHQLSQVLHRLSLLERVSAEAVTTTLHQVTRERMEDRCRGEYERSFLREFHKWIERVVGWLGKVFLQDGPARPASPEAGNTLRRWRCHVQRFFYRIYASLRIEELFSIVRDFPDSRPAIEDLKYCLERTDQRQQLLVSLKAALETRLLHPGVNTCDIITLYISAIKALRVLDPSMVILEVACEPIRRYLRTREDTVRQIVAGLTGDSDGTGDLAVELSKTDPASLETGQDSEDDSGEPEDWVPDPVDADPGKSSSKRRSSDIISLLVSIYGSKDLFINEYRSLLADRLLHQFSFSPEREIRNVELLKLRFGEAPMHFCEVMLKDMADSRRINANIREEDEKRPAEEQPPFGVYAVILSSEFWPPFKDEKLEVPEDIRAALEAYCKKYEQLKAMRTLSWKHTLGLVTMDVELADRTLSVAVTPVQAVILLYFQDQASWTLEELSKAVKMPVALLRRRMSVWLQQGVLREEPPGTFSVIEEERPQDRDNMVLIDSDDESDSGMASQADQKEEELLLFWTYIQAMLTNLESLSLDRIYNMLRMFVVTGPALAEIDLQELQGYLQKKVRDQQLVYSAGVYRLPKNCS

For the compound `Oc1ccc2c(c1)cc(Sc1cccc3cccnc13)c1nonc12` [compound 425, 4-(quinolin-8-ylthio)naphtho[2,1-c][1,2,5]oxadiazol-7-ol], the IC50 (on TRAF6/Uev1A/Ubc13; in assay [1]; on APC11/APC2) was at least 20 µM throughout.
Turning to `Cc1cc(C)cc(-c2ccc(N)c3nonc23)c1` [compound 426, 7-(3,5-dimethylphenyl)-2,1,3-benzoxadiazol-4-amine], the IC50 (at TRAF6/Uev1A/Ubc13; in assay [1]; on APC11/APC2) was at least 20 µM throughout.
`O=C(Nc1ccc([N+](=O)[O-])c2nonc12)c1cccc(F)c1F` [compound 427, 2,3-difluoro-N-(7-nitro-2,1,3-benzoxadiazol-4-yl)benzamide]: the IC50 at TRAF6/Uev1A/Ubc13 is at least 20 µM; in assay [1], 1 to 20 µM; on APC11/APC2 it was at least 20 µM.
Regarding `O=[N+]([O-])c1c(N2CCCCC2)cc(-c2cc(F)cc(F)c2)c2nonc12` [compound 428, 7-(3,5-difluorophenyl)-4-nitro-5-(piperidin-1-yl)-2,1,3-benzoxadiazole], the concentration for half-maximal inhibition (IC50) (against TRAF6/Uev1A/Ubc13; in assay [1]; at APC11/APC2) was at least 20 µM throughout.
Turning to `O=[N+]([O-])c1c(N2CCCCC2)cc(-c2cccc(C(F)(F)F)c2)c2nonc12` [compound 429, 7-(3-[trifluoromethyl]phenyl)-4-nitro-5-(piperidin-1-yl)-2,1,3-benzoxadiazole], the IC50 (on TRAF6/Uev1A/Ubc13; in assay [1]; against APC11/APC2) was at least 20 µM in each case.
As for `Oc1ccc2c(c1)cc(Cl)c1nonc12` [compound 430, 4-chloronaphtho[2,1-c][1,2,5]oxadiazol-7-ol], the IC50 (against TRAF6/Uev1A/Ubc13; in assay [1]; on APC11/APC2) was at least 20 µM throughout.
In the case of `O=[N+]([O-])c1c(N2CCCCC2)cc(-c2ccc(C(F)(F)F)cc2)c2nonc12` [compound 431, 7-(4-[trifluoromethyl]phenyl)-4-nitro-5-(piperidin-1-yl)-2,1,3-benzoxadiazole], the IC50 (on TRAF6/Uev1A/Ubc13; in assay [1]; against APC11/APC2) was at least 20 µM throughout.
For the compound `Cc1cccc(-c2cc(N3CCCCC3)c([N+](=O)[O-])c3nonc23)c1` [compound 432, 7-(3-methylphenyl)-4-nitro-5-(piperidin-1-yl)-2,1,3-benzoxadiazole], the IC50 (against TRAF6/Uev1A/Ubc13; in assay [1]; at APC11/APC2) was at least 20 µM in each case.
`CC(C)(C)c1ccc(-c2cc(N3CCCCC3)c([N+](=O)[O-])c3nonc23)cc1` [compound 433, 7-(4-t-butylphenyl)-4-nitro-5-(piperidin-1-yl)-2,1,3-benzoxadiazole]: the IC50 (at TRAF6/Uev1A/Ubc13; in assay [1]; against APC11/APC2) was at least 20 µM in each case.
As to `COc1cccc(-c2cc(N3CCCCC3)c([N+](=O)[O-])c3nonc23)c1` [compound 434, 7-(3-methoxyphenyl)-4-nitro-5-(piperidin-1-yl)-2,1,3-benzoxadiazole], the IC50 (against TRAF6/Uev1A/Ubc13; in assay [1]; at APC11/APC2) was at least 20 µM throughout.
In the case of `CC(C)(C)c1ccc(-c2ccc(N)c3nonc23)cc1` [compound 435, 7-(4-t-butylphenyl)-2,1,3-benzoxadiazol-4-amine], the IC50 (against TRAF6/Uev1A/Ubc13; in assay [1]; on APC11/APC2) was at least 20 µM throughout.
For the compound `CC(=O)Nc1ccc(-c2cc(C)cc(C)c2)c2nonc12` [compound 436, N-(7-[3,5-dimethylphenyl]-2,1,3-benzoxadiazol-4-yl)acetamide], the IC50 (against TRAF6/Uev1A/Ubc13; in assay [1]; on APC11/APC2) was at least 20 µM in each case.
`O=[N+]([O-])c1ccc(-c2ccccc2F)c2nonc12` [compound 437, 7-(2-fluorophenyl)-4-nitro-2,1,3-benzoxadiazole]: the IC50 is at least 20 µM against TRAF6/Uev1A/Ubc13, 1 to 20 µM in assay [1] and 1 to 20 µM against APC11/APC2.
As to `COCCNS(=O)(=O)c1ccc(Cl)c2nonc12` [compound 438, 7-chloro-N-(2-methoxyethyl)-2,1,3-benzoxadiazole-4-sulfonamide], the IC50 (against TRAF6/Uev1A/Ubc13; in assay [1]; against APC11/APC2) was at least 20 µM throughout.

What is called IC50 is the midpoint of a concentration-inhibition curve. Read a low IC50 as inhibition by little substance.
